pIC50, pKd: −log10 of the molar value. Where two headings read alike, the source gives them in different places.
Key:
[1] = target: GDP-bound KRAS wild-type protein (Homo sapiens, UniProt P01116); assay: Binding to KRAS by surface plasmon resonance (SPR), dissociation constant KD
In short: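 Single-cycle kinetics on GDP-loaded biotin-Avi RAS captured to ~100–300 RU; 75 s ascending injections, 100 µL/min, 30°C. HBS pH 7.4 + 10 mM MgCl2/10 µM GDP/4% DMSO. 1:1 fit, KD.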

[2] = target: GDP-bound NRAS wild-type protein (Homo sapiens, UniProt P01111); assay: Binding to NRAS by surface plasmon resonance (SPR), KD and KD ratio to KRAS
In short: (§1)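 Compound binding is evaluated by SPR single-cycle kinetics, with concentrations added intermittently from low to high for 75 s each. Target surfaces carry GDP-loaded biotinylated Avi-RAS at about 100–300 RU, regenerated after each cycle; temperature 30°C. A 1:1 binding model gives KD.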

HRAS wild-type protein = HRAS wild-type protein (Homo sapiens, UniProt P01112); assay: Binding to HRAS by surface plasmon resonance (SPR), KD and KD ratio to KRAS
In short: as §1

[3] = test system: human lung cancer strain NCI-H441; assay: NCI-H441 cell proliferation inhibitory activity (CellTiter-Glo, 4 days); type: cell-based; conditions: read-out: NCl-H441 IC50
In short: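 Proliferation was scored by […] measured after the reagent was added to cultures kept at 37°C in 5% carbon dioxide.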

[4] = ratio of KD for GDP-bound NRAS wild-type protein to KD for KRAS
[5] = ratio of KD for HRAS wild-type protein to KD for KRAS
[6] = Single Cycle Kinetics, 1:1 binding model
[7] = ratio of KD with respect to GDP-bound NRAS wild-type protein to KD with respect to KRAS
[8] = ratio of KD with respect to HRAS wild-type protein to KD with respect to KRAS
[9] = 50% proliferation inhibitory concentration, four days

Sequence of GDP-bound NRAS wild-type protein (P01111 whole entry): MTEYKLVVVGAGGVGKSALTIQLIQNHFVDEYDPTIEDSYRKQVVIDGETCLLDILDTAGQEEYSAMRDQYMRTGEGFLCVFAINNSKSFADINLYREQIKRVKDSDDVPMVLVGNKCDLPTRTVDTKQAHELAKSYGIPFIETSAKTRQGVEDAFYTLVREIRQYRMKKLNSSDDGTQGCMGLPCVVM
Sequence of GDP-bound KRAS wild-type protein (P01116 1-188 isoform P01116-2): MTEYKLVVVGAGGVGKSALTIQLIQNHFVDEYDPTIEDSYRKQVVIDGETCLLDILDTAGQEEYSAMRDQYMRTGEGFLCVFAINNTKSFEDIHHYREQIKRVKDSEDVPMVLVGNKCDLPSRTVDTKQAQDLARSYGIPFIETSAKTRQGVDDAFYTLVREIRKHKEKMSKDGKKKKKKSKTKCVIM
Sequence of HRAS wild-type protein (P01112 whole entry): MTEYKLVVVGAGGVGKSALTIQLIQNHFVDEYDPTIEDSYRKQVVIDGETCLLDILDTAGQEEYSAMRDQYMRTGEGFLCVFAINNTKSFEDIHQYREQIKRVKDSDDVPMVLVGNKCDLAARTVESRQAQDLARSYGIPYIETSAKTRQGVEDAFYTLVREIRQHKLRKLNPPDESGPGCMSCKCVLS

Row | pKd ([1]; 1:1 binding model) | pIC50 ([3]; NCI-H441 cells, 4 days) | pKd [1, 6] | pIC50 [3, 9] | pKd ([1]; Single Cycle Kinetics) | Compound | NRAS /KRAS [2, 4] | HRAS /KRAS (HRAS wild-type protein; [5]) | NRAS /KRAS [2, 7] | HRAS /KRAS (HRAS wild-type protein; [8])
1 | 10.05 | 8.04 |  |  |  | CCCOC[C@H]1C(=O)N[C@@H]([C@@H](C)CC)C(=O)N(C)CC(=O)N(C)[C@H]2C/C=C\CCN(C2=O)[C@@H](Cc2ccc(C)cc2)C(=O)N(C)CC(=O)N[C@@H](CCc2ccc(C(F)(F)F)c(Cl)c2)C(=O)N2C[C@@H](C)C[C@H]2C(=O)NC2(CC(C)(C)C2)C(=O)N(C)[C@@H](C2CCCC2)C(=O)N(C)[C@H](C(=O)N(C)C)CC(=O)N1C [PP2453] | A (a compound having 10 or more and less than 20 is denoted as A) | A (a compound having 10 or more and less than 20 is denoted as A) |  | 
2 | 9.55 | 7.01 |  |  |  | CC[C@H](C)[C@@H]1NC(=O)[C@H](COC)N(C)C(=O)C[C@@H](C(=O)N(C)C)N(C)C(=O)[C@H](C2CCCC2)N(C)C(=O)C2(CC(C)(C)C2)NC(=O)[C@@H]2C[C@H](C)CN2C(=O)[C@H](CCc2ccc(C(F)(F)F)c(OC)c2)NC(=O)CN(C)C(=O)[C@H](Cc2ccc(C)cc2)N2CC/C=C\C[C@@H](C2=O)N(C)C(=O)[C@@H]2C[C@H](OC)CN2C1=O [PP2390] | A (a compound having 10 or more and less than 20 is denoted as A) | B (a compound having 3 or more and less than 10 is denoted as B) |  | 
3 | 8.77 | 6.79 |  |  |  | CCCOC[C@H]1C(=O)N[C@@H]([C@@H](C)CC)C(=O)N(C)CC(=O)N(C)[C@H]2C/C=C\CCN(C2=O)[C@@H](CC2CCC(F)(F)CC2)C(=O)N(C)CC(=O)N[C@@H](CCc2cc(F)c(C(F)(F)F)c(F)c2)C(=O)N2C[C@@H](C)C[C@H]2C(=O)NC2(CC(C)(C)C2)C(=O)N(C)[C@@H](C(CC)CC)C(=O)N(C)[C@H](C(=O)N(C)C)CC(=O)N1C [PP2490] | AA (a compound having 20 or more is denoted as AA) | A (a compound having 10 or more and less than 20 is denoted as A) |  | 
4 |  |  | 9.07 | 7.15 |  | CCO[C@@H]1C[C@H]2C(=O)NC3(CCC3)C(=O)N(C)[C@@H](C(CC)CC)C(=O)N(C)[C@H](C(=O)N(C)C)CC(=O)N(C)[C@@H](CC3CCCC3)C(=O)N[C@@H]([C@@H](C)CC)C(=O)N(C)CC(=O)N(C)[C@H]3C/C=C\CCN(C3=O)[C@@H](CC3CCCCC3)C(=O)N(C)CC(=O)N[C@@H](CCc3cc(F)c(C(F)(F)F)c(F)c3)C(=O)N2C1 [PP1430] |  |  | A (a compound having 10 or more and less than 20 is denoted as A) | A (a compound having 10 or more and less than 20 is denoted as A)
5 |  | 7.83 |  |  | 9.37 | CCC[C@H]1C(=O)N[C@@H]([C@@H](C)CC)C(=O)N2CCC[C@H]2C(=O)N(C)[C@H]2C/C=C\CCN(C2=O)[C@@H](Cc2ccc(C(F)(F)F)cc2)C(=O)N(C)CC(=O)N[C@@H](CCc2cc(F)c(C(F)(F)F)c(F)c2)C(=O)N2C[C@H](OCC)C[C@H]2C(=O)NC2(CCCC2)C(=O)N(C)[C@@H](C2CCCC2)C(=O)N(C)[C@H](C(=O)N(C)C)CC(=O)N1C [PP3474] | A (a compound having 10 or more and less than 20 is denoted as A) | A (a compound having 10 or more and less than 20 is denoted as A) |  | 
6 |  |  | 9.80 | 7.58 |  | CCO[C@@H]1C[C@H]2C(=O)NC3(CCC3)C(=O)N(C)[C@@H](C3CCCC3)C(=O)N(C)[C@H](C(=O)N3CCOCC3)CC(=O)N(C)[C@@H](CC3CC3)C(=O)N[C@@H]([C@@H](C)CC)C(=O)N(C)CC(=O)N(C)[C@H]3CCCCCN(C3=O)[C@@H](Cc3ccc(F)cc3)C(=O)N(C)CC(=O)N[C@@H](CCc3cc(F)c(C(F)(F)F)c(F)c3)C(=O)N2C1 [PP1178] |  |  | B (a compound having 3 or more and less than 10 is denoted as B) | B (a compound having 3 or more and less than 10 is denoted as B)
7 |  | 7.62 |  |  | 9.25 | CCCO[C@@H]1C[C@H]2C(=O)NC3(CC(C)(C)C3)C(=O)N(C)[C@@H](C3CCCC3)C(=O)N(C)[C@H](C(=O)N(C)CC)CC(=O)N(C)[C@@H](COCC)C(=O)N[C@@H]([C@@H](C)CC)C(=O)N3C[C@@H](F)C[C@H]3C(=O)N(C)[C@H]3C/C=C\CCN(C3=O)[C@@H](Cc3ccc(C)cc3)C(=O)N(C)CC(=O)N[C@@H](CCc3ccc(C(F)(F)F)c(OC)c3)C(=O)N2C1 [PP3469] | A (a compound having 10 or more and less than 20 is denoted as A) | A (a compound having 10 or more and less than 20 is denoted as A) |  | 
8 | 8.39 | 6.67 |  |  |  | CCC[C@H]1C(=O)N[C@@H](CC(C)C)C(=O)N2C[C@@H](OC)C[C@H]2C(=O)N(C)[C@H]2C/C=C\CCN(C2=O)[C@@H](Cc2ccc(C)cc2)C(=O)N(C)CC(=O)N[C@@H](CCc2ccc(C(F)(F)F)c(Cl)c2)C(=O)N2C[C@H](OCC)C[C@H]2C(=O)NC2(CC(C)(C)C2)C(=O)N(C)[C@@H](C2CCCC2)C(=O)N(C)[C@H](C(=O)N(C)C)CC(=O)N1C [PP2555] | A (a compound having 10 or more and less than 20 is denoted as A) | B (a compound having 3 or more and less than 10 is denoted as B) |  | 
9 |  |  | 8.80 | 6.57 |  | CCO[C@@H]1C[C@H]2C(=O)NC3(CCC3)C(=O)N(C)[C@@H](C3CCCC3)C(=O)N(C)[C@H](C(=O)N3CCCC3)CC(=O)N(C)[C@@H](CC3CCCC3)C(=O)N[C@@H]([C@@H](C)CC)C(=O)N(C)CC(=O)N(C)[C@H]3C/C=C\CCN(C3=O)[C@@H](Cc3ccc(F)cc3)C(=O)N(C)CC(=O)N[C@@H](CCc3ccc4sccc4c3)C(=O)N2C1 [PP1391] |  |  | A (a compound having 10 or more and less than 20 is denoted as A) | A (a compound having 10 or more and less than 20 is denoted as A)
10 |  | 8.09 |  |  | 9.66 | CCCC[C@H]1C(=O)N[C@@H]([C@@H](C)CC)C(=O)N(C)CC(=O)N(C)[C@H]2C/C=C\CCN(C2=O)[C@@H](Cc2ccc(C)cc2)C(=O)N(C)CC(=O)N[C@@H](CCc2ccc(C(F)(F)F)c(OC)c2)C(=O)N2C[C@H](OCC)C[C@H]2C(=O)OC2(CCC2)C(=O)N(C)[C@@H](C2CCCC2)C(=O)N(C)[C@H](C(=O)N(C)C)CC(=O)N1C [PP3385] | A (a compound having 10 or more and less than 20 is denoted as A) | B (a compound having 3 or more and less than 10 is denoted as B) |  | 
11 |  |  | 9.77 | 7.46 |  | CCO[C@@H]1C[C@H]2C(=O)NC3(CCC3)C(=O)N(C)[C@@H](C3CCCC3)C(=O)N(C)[C@H](C(=O)N3CCCCC3)CC(=O)N(C)[C@@H](CC)C(=O)N[C@@H]([C@@H](C)CC)C(=O)N(C)CC(=O)N(C)[C@H]3C/C=C\CCN(C3=O)[C@@H](Cc3ccc(C(F)(F)F)cc3)C(=O)N(C)CC(=O)N[C@@H](CCc3cc(F)c(C(F)(F)F)c(F)c3)C(=O)N2C1 [PP1289] |  |  | AA (a compound having 20 or more is denoted as AA) | A (a compound having 10 or more and less than 20 is denoted as A)
12 |  | 7.92 |  |  | 9.82 | CCCO[C@@H]1C[C@H]2C(=O)NC3(CC(C)(C)C3)C(=O)N(C)[C@@H](C3CCCC3)C(=O)N(C)[C@H](C(=O)N(C)CC)CC(=O)N(C)[C@@H](COCC)C(=O)N[C@@H]([C@@H](C)CC)C(=O)N(C)CC(=O)N(C)[C@H]3C/C=C\CCN(C3=O)[C@@H](Cc3ccc(C)cc3)C(=O)N(C)CC(=O)N[C@@H](CCc3cc(F)c(C(F)(F)F)c(F)c3)C(=O)N2C1 [PP3419] | A (a compound having 10 or more and less than 20 is denoted as A) | A (a compound having 10 or more and less than 20 is denoted as A) |  | 
13 |  | 7.13 |  |  | 8.42 | CCCO[C@@H]1C[C@H]2C(=O)NC3(CC(C)(C)C3)C(=O)N(C)[C@@H](C3CCCC3)C(=O)N(C)[C@H](C(=O)N(C)CC)CC(=O)N(C)[C@@H](COCC)C(=O)N[C@@H]([C@@H](C)CC)C(=O)N3C[C@@H](C)C[C@H]3C(=O)N(C)[C@H]3C/C=C\CCN(C3=O)[C@@H](Cc3ccc(C(F)(F)F)cc3)C(=O)N(C)CC(=O)N[C@@H](CCc3ccc(C(F)(F)F)c(Cl)c3)C(=O)N2C1 [PP3407] | A (a compound having 10 or more and less than 20 is denoted as A) | A (a compound having 10 or more and less than 20 is denoted as A) |  | 
14 |  | 7.68 |  |  | 9.26 | CCCO[C@@H]1C[C@H]2C(=O)NC3(CC(C)(C)C3)C(=O)N(C)[C@@H](C3CCCC3)C(=O)N(C)[C@H](C(=O)N(C)CC)CC(=O)N(C)[C@@H](COCC)C(=O)N[C@@H]([C@@H](C)CC)C(=O)N3C[C@@H](F)C[C@H]3C(=O)N(C)[C@H]3C/C=C\CCN(C3=O)[C@@H](Cc3ccc(C(F)(F)F)cc3)C(=O)N(C)CC(=O)N[C@@H](CCc3ccc(C(F)(F)F)c(Cl)c3)C(=O)N2C1 [PP3409] | A (a compound having 10 or more and less than 20 is denoted as A) | A (a compound having 10 or more and less than 20 is denoted as A) |  | 
15 |  | 8.14 |  |  | 9.42 | C#CC[C@H]1C(=O)N[C@@H]([C@@H](C)CC)C(=O)N2CCC[C@H]2C(=O)N(C)[C@H]2C/C=C\CCN(C2=O)[C@@H](Cc2ccc(C)cc2)C(=O)N(C)CC(=O)N[C@@H](CCc2ccc(C(F)(F)F)c(OC)c2)C(=O)N2C[C@H](OCC)C[C@H]2C(=O)OC2(CCC2)C(=O)N(C)[C@@H](C2CCCC2)C(=O)N(C)[C@H](C(=O)N(C)C)CC(=O)N1C [PP3389] | A (a compound having 10 or more and less than 20 is denoted as A) | B (a compound having 3 or more and less than 10 is denoted as B) |  | 
